Biological target: Nonstructural protein 3 (Zika virus, UniProt A0A024AXB9)
Test: Functional biochemical assay to identify treatments for viral infectious disease that targets Zika NS2B-NS3 protease. Utilizing a direct enzyme activity measurement method, reading the fluorescence intensity is used to characterize the relative potency of inhibitors as IC50.
Set-up: species or system PRVABC59

Sequence of Nonstructural protein 3 (A0A024AXB9 whole entry): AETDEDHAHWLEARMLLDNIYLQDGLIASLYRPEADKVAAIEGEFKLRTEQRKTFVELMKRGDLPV

Row | SMILES | IC50
1 | NCc1cccc(NC(=O)[C@H](NC(=O)Cn2cccn2)c2ccc(OCc3ccccc3)cc2)c1 | > 99.5 µM
2 | O=Cc1ccc(CC(=O)N2C[C@@H](O)[C@H](N3CCOCC3)C2)cc1 | > 99.5 µM
3 | CN1CCN(Cc2cccc(CNC(=O)[C@@H](NC(=O)OCc3ccccc3)c3ccc(OCc4ccccc4)cc3)c2)CC1 | > 99.5 µM
4 | O=C(Nc1cc(Cl)cc(C(=O)Nc2ccccc2[C@@H]2C[C@H]2C(=O)O)c1)OCc1ccccc1 | > 99.5 µM
5 | CO[C@]1(C)C(=O)Nc2cc(F)cc(C(=O)Nc3ccc4c(c3)CNC4)c21 | 1.19 µM
6 | c1nc(C2CCN(Cc3n[nH]c4c3CCC4)CC2)cs1 | > 99.5 µM
7 | O=C(Nc1ccc2c(c1)CNC2)c1nc(Cl)nc2[nH]ccc12 | > 25 µM
8 | CCOc1cccc(-c2ccc(S(=O)(=O)Nc3ccc(Cl)cc3C(=O)O)cc2C)c1 | 11.1 µM
9 | NCc1cccc(NC(=O)[C@@H](NC(=O)OCc2ccccc2)c2ccc(OCCN3CCCCC3)cc2)c1 | > 99.5 µM
10 | COc1ccc(-c2cccc([C@@H](NC(=O)OCc3ccccc3)C(=O)Nc3cccc(CN)c3)c2)cn1 | 35.3 µM
11 | Cc1cc(NC(=O)c2cc(Cl)cc3[nH]ncc23)ccc1N1CCNCC1 | 6.48 µM
12 | O=C(O)c1cc(Cl)ccc1S(=O)(=O)Nc1ccc(C(=O)N2CCCCC2)cc1 | > 99.5 µM
13 | NCc1cc(Cl)cc(C(=O)Nc2cccc(-c3nn[nH]n3)c2)c1 | > 99.5 µM
14 | O=C(c1cc(Cl)cc2[nH]ncc12)N1C[C@H]2CNC[C@H]2C1 | > 99.5 µM
15 | COC[C@]1(c2nc3c(C(=O)Nc4ccc5c(c4)CNC5)cc(F)cc3[nH]2)CCOC1 | 0.344 µM
16 | CC(C)(C)OC(=O)NCc1cccc(NC(=O)[C@@H](NC(=O)OCc2ccccc2)c2cccc(O)c2)c1 | > 99.5 µM
17 | Cn1nccc1-c1ccc([C@@H](NC(=O)OCc2ccccc2)C(=O)Nc2cccc(CN)c2)cc1 | > 99.5 µM
18 | O=C(Nc1ccc2c(c1)CNC2)c1ccc(-c2cncs2)cc1 | > 25 µM
19 | O=C1Cc2c(cccc2C(=O)Nc2ccc3c(c2)CNCC3)N1 | 3.03 µM
20 | O=C(O)c1cc(Cl)ccc1NS(=O)(=O)c1ccc(OCc2cncnc2)cc1 | > 99.5 µM

Second part, the compound after the results:

Row | IC50 | SMILES
21 | 13.1 µM | COCCCN1Cc2ccc(NC(=O)c3cc(Cl)cc4[nH]ncc34)cc2C1
22 | > 0.782 µM | O=Cc1ccc(N2CCC(C(=O)NC[C@@H]3CCCN4CCCC[C@H]34)CC2)cc1
23 | > 99.5 µM | O=C(Nc1cc(Cl)cc(C(=O)N[C@H]2CCCC[C@@H]2C(=O)O)c1)OCc1ccccc1
24 | > 99.5 µM | CCCN1C(=O)[C@](C#N)(Nc2cccc(-c3nn[nH]n3)c2)c2cc(Cl)ccc21
25 | 17.8 µM | O=C(Nc1cc(Cl)cc(-c2ccc3[nH]nc(C(=O)O)c3c2)c1)OCc1ccccc1
26 | > 99.5 µM | CCn1ccc2cc(CN3CCC(c4c[nH]c5cccnc45)CC3)ccc21
27 | 5.26 µM | CC(=Cc1cc(Cl)cc(NC(=O)OCc2ccccc2)c1)c1cccc(CN)c1
28 | > 25 µM | C=CC[C@H](Nc1cc([C@H]2CCOC2)ccn1)c1cc(C2CC2)n(C)n1
29 | 23.9 µM | O=C(Nc1cc(Cl)cc(C(=O)Nc2ccc3c(c2)[C@H]2CC[C@H]3N2)c1)OCc1ccccc1
30 | 73.3 µM | c1cnc2[nH]cc(C3CCN(Cc4c[nH]c5ccncc45)CC3)c2c1
31 | > 25 µM | O=C1Cc2c(cccc2C(=O)NC2(c3ccc(O)nc3)CC2)N1
32 | > 25 µM | NCCCc1ccnc(NC(=O)c2cc(C3CC3)[nH]n2)c1
33 | > 99.5 µM | CCn1c(=O)c(N2CC[C@H](N3CCCC3=O)C2)nc2ccccc21
34 | > 25 µM | Cc1ncc2c(n1)CCC[C@H]2NC(=O)c1cccc2c1CC(=O)N2
35 | 55.9 µM | O=Cc1ccc(N2CCC(C(=O)NCCc3ccc(O)c(O)c3)CC2)cc1
36 | > 99.5 µM | CCn1c(=O)c(N2CC[C@H]3[C@H]2[C@H]3C(F)(F)F)nc2ccccc21
37 | > 99.5 µM | NCc1cccc(NC(=O)c2cccc(NC(=O)OCc3ccccc3)n2)c1
38 | > 99.5 µM | C[C@H]1COCCN1C(=O)c1cc(Cl)ccc1NS(=O)(=O)c1ccc(Oc2ccccc2Cl)cc1
39 | > 99.5 µM | O=c1ccc(N2CCN(Cc3c[nH]c4ccccc34)CC2)n[nH]1
40 | > 99.5 µM | O=C(Nc1cc(Cl)cc(-c2ccn3c(C(=O)O)cnc3c2)c1)OCc1ccccc1
41 | > 25 µM | CC(C)(C)c1noc2nc(C(=O)Nc3ccc4c(c3)CNC4)ccc12

— ChEMBL document CHEMBL5604062, “ASAP - ZIKV NS2B-NS3 protease fluorescence dose response” (2024)
